Some test systems named below: CCRF-CEM leukemia; LOX IMVI melanoma; MOLT-4 leukemia; NCI-H23 lung; NCI-H460 lung; SF-539 CNS; SK-MEL-5 melanoma; U251 CNS; CAKI-1 renal; OVCAR-4 ovarian.
Common to all, as to assay: NCI-60 cell line screen, 48 h

Molecules are shown by their SMILES.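 96-well plates; 48 h exposure; 5 concentrations. Endpoints by linear interpolation between flanking doses. Not reached: highest tested concentration assigned. At the GI50, growth is halved. TGI denotes the concentration required for complete inhibition of growth.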

For the molecule `CCCCCCCCCC(=O)NC(Cc1ccc(O)cc1)C(=O)NCCCNCCCCNCCCNC(=O)[C@@H](N)CCCN=C(N)N` (stereo not given in full), the TGI in the assay on CCRF-CEM leukemia is above 100 µM; with LOX IMVI melanoma, above 100 µM; in the assay on MOLT-4 leukemia, above 100 µM; in the assay with NCI-H23 lung, above 100 µM; in the assay with NCI-H460 lung, above 100 µM; in the assay on SF-539 CNS it was 26.8 µM. In addition, the TGI in the assay with SK-MEL-5 melanoma was 35.7 µM.

As for `O=C(O)c1ccc(Nc2nc3nn(Cc4ccccc4)cc3c(=O)s2)cc1`, the TGI in the assay with CCRF-CEM leukemia, in the assay on LOX IMVI melanoma, in the assay with MOLT-4 leukemia, in the assay with NCI-H23 lung, in the assay on NCI-H460 lung and in the assay with SF-539 CNS was above 100 µM throughout. Besides, the TGI with SK-MEL-5 melanoma and in the assay on U251 CNS was above 100 µM each time.

`C/C(O)=C(\N=O)C(=O)NCc1ccccc1`: the TGI was above 100 µM in the assay on CAKI-1 renal; above 100 µM in the assay on CCRF-CEM leukemia; 36.6 µM with LOX IMVI melanoma; above 100 µM with MOLT-4 leukemia; above 100 µM with NCI-H23 lung; above 100 µM in the assay on NCI-H460 lung. Further, the TGI in the assay on SF-539 CNS, in the assay on SK-MEL-5 melanoma and in the assay on U251 CNS was above 100 µM throughout.

With `OC12CCC3(O)c4ccccc4C3C1c1ccccc12` (stereo not given), the TGI in the assay with CCRF-CEM leukemia, with LOX IMVI melanoma, in the assay with MOLT-4 leukemia, in the assay on NCI-H23 lung, in the assay with NCI-H460 lung and in the assay with OVCAR-4 ovarian was above 100 µM in each case. For the same molecule, the TGI in the assay with SK-MEL-5 melanoma and in the assay with U251 CNS was above 100 µM throughout.

As to `CC12OC(C(=O)C13CCC3)C1C(=O)c3ccc4c(ccc5ccccc54)c3C(=O)C12` (stereo not given), the GI50 was 1.42 µM with CAKI-1 renal; 2.99 µM in the assay on CCRF-CEM leukemia; 3.67 µM in the assay with MOLT-4 leukemia; 10.5 µM with NCI-H23 lung; 12 µM in the assay on NCI-H460 lung; 11.1 µM in the assay on SF-539 CNS. The GI50 with U251 CNS is 11.5 µM. Moreover, the TGI came out at 12.7 µM with CAKI-1 renal; 15.2 µM with CCRF-CEM leukemia; 53.6 µM in the assay on MOLT-4 leukemia; 23.6 µM with NCI-H23 lung; 35.9 µM in the assay with NCI-H460 lung; 66.8 µM with SF-539 CNS. For the same molecule, the TGI in the assay on U251 CNS was found to be 31.9 µM.

For `N#C/C(=C\c1ccccc1)C(NO)Nc1ccccc1` (stereo not given), the TGI in the assay with CAKI-1 renal, with CCRF-CEM leukemia, in the assay with MOLT-4 leukemia, in the assay with NCI-H23 lung, in the assay on NCI-H460 lung and in the assay with OVCAR-4 ovarian was above 100 µM throughout. Further, the TGI with SF-539 CNS, with SK-MEL-5 melanoma and in the assay with U251 CNS was above 100 µM each time.

Regarding `C=Cc1c(C)c2cc3[nH]c(cc4nc(cc5nc(cc1[nH]2)C(C)=C5CCC(=O)N(CC)CC)C(CCC(=O)N(CC)CC)=C4C)c(C)c3C=C`, the TGI in the assay with CCRF-CEM leukemia, with LOX IMVI melanoma, in the assay with MOLT-4 leukemia, in the assay on NCI-H23 lung, in the assay on NCI-H460 lung and with OVCAR-4 ovarian was above 100 µM in each case. The TGI in the assay with SF-539 CNS, in the assay with SK-MEL-5 melanoma and in the assay on U251 CNS was above 100 µM in each case.

Regarding `S=C(CSc1ccccc1)Nc1cccc2ccccc12`, the TGI in the assay on CAKI-1 renal was above 100 µM; in the assay with LOX IMVI melanoma, above 100 µM; in the assay on MOLT-4 leukemia, 63.2 µM; in the assay on NCI-H23 lung, above 100 µM; in the assay with NCI-H460 lung, above 100 µM; in the assay on OVCAR-4 ovarian, above 100 µM. The values for the TGI with SF-539 CNS, in the assay with SK-MEL-5 melanoma and in the assay on U251 CNS were 76.4 µM, 36.6 µM and above 100 µM, respectively.

Regarding `CC(=O)NC1=C(N)C(=O)c2ccccc2C1=O`, the TGI in the assay on CAKI-1 renal is above 100 µM; in the assay with CCRF-CEM leukemia, above 100 µM; in the assay with LOX IMVI melanoma, 28.6 µM; in the assay with MOLT-4 leukemia, above 100 µM; with NCI-H23 lung, above 100 µM; in the assay on NCI-H460 lung, 40.6 µM. Further, the TGI in the assay on SF-539 CNS, with SK-MEL-5 melanoma and in the assay on U251 CNS was above 100 µM throughout.

For `O=C(/C(=N/Nc1ccccc1)c1ccc([N+](=O)[O-])cc1)c1ccc([N+](=O)[O-])cc1`, the TGI in the assay with CAKI-1 renal, in the assay on MOLT-4 leukemia, in the assay with NCI-H23 lung, in the assay on NCI-H460 lung, in the assay on OVCAR-4 ovarian and with SF-539 CNS was above 100 µM throughout. The TGI in the assay with SK-MEL-5 melanoma and in the assay with U251 CNS was above 100 µM throughout.

In the case of `CCN(CC)c1ccc2nc3ccc(N=Nc4ccc(O)cc4)cc3[n+](-c3ccccc3)c2c1`, the GI50 is 10.1 µM in the assay on CAKI-1 renal; 2.85 µM with LOX IMVI melanoma; 3.75 µM with NCI-H23 lung; 3.41 µM in the assay on NCI-H460 lung; 1.39 µM in the assay on OVCAR-4 ovarian; 13.3 µM in the assay with SF-539 CNS. Further, the GI50 is 2.92 µM in the assay on SK-MEL-5 melanoma and 7.81 µM in the assay on U251 CNS. Further, the TGI with CAKI-1 renal is above 100 µM; with LOX IMVI melanoma, 17.3 µM; with NCI-H23 lung it was 40.3 µM; in the assay with NCI-H460 lung it was above 100 µM; in the assay on OVCAR-4 ovarian, 2.77 µM; in the assay on SF-539 CNS, 91.2 µM. Besides, the TGI in the assay on SK-MEL-5 melanoma is 12.2 µM; in the assay on U251 CNS, above 100 µM.

As for `CC(C)C(=S)N(C)O`, the TGI was above 100 µM in the assay on CAKI-1 renal; 62.5 µM in the assay on LOX IMVI melanoma; above 24.7 µM with MOLT-4 leukemia; above 100 µM with NCI-H23 lung; above 75.5 µM in the assay with NCI-H460 lung; above 100 µM in the assay on OVCAR-4 ovarian. Moreover, the results for the TGI in the assay on SF-539 CNS, with SK-MEL-5 melanoma and with U251 CNS were 89.7 µM, above 77.7 µM and above 100 µM, respectively.

Consider `Cc1cc2c(cc1CO)N1Cc3cc(C)c(CO)cc3N(C2)C1`, for which the TGI in the assay on CCRF-CEM leukemia, in the assay with LOX IMVI melanoma, in the assay with MOLT-4 leukemia, with NCI-H23 lung, in the assay on NCI-H460 lung and in the assay with OVCAR-4 ovarian was above 100 µM throughout. The TGI in the assay with SF-539 CNS, in the assay with SK-MEL-5 melanoma and in the assay on U251 CNS was above 100 µM in each case.

In the case of `CCC[CH2][Sn]([CH2]CCC)([O]C(=O)c1cccc(F)c1F)[O]C(=O)c1cccc(F)c1F`, the GI50 was 0.519 µM in the assay on LOX IMVI melanoma; 0.336 µM in the assay with MOLT-4 leukemia; 0.614 µM with NCI-H23 lung; 1.7 µM with NCI-H460 lung; 1.86 µM with OVCAR-4 ovarian; 1.27 µM in the assay on SF-539 CNS. In addition, the GI50 is 1.52 µM with SK-MEL-5 melanoma and 0.675 µM in the assay with U251 CNS. Further, the TGI in the assay with LOX IMVI melanoma worked out at 1.74 µM; in the assay with MOLT-4 leukemia, 2.04 µM; in the assay on NCI-H23 lung it was 1.89 µM; in the assay on NCI-H460 lung it was 3.24 µM; in the assay with OVCAR-4 ovarian, 3.31 µM; in the assay on SF-539 CNS, 2.56 µM. The TGI in the assay on SK-MEL-5 melanoma was 2.87 µM; in the assay with U251 CNS, 1.93 µM.

Values taken from PubChem BioAssay (NCI).
